Article PMC8504809 (Clinical and Translational Science, 2021)
One block for each molecule: values may come before it.

How the values were obtained:
[1] = Monkey PBPK model fitting of plasma and liver concentrations; parameters: species or system cynomolgus monkey; conditions: for reduction of active uptake clearance with rifampin inhibition (modeled): PBPK model, RIF vs vehicle; for Kp: plasma and liver
[2] = cited from earlier work
Liver exposure = type: in vivo, cynomolgus monkey; conditions: for liver concentration, RIF vs vehicle, at 1 h: 1 h post IV infusion; for increase of liver concentration with RIF at 6 h: average, RIF vs vehicle, N = 2 per time point
[3] = Plasma pharmacokinetics after single IV cassette infusion; type: in vivo, cynomolgus monkey
[4] = tested on: suspension monkey hepatocytes; experiment: In vitro hepatic uptake clearance in suspension monkey hepatocytes; type: in vitro ADME, cynomolgus monkey; conditions: 37°C
[5] = Urinary excretion in monkeys; type: in vivo; conditions: in-house bile duct cannulation (BDC) monkey study (data not shown)
[6] = clinical trial; cited from earlier work
[7] = Pharmacokinetics of rifampin after oral administration; type: in vivo; conditions: male, cynomolgus monkey, plasma, 20 mg/kg
[8] = monkeys; cited from earlier work
[9] = humans; cited from earlier work
OATP1B3 = conditions: read-out: Ki against OATP1B3; cited from earlier work
OAT2 = conditions: read-out: IC50 for OAT2; cited from earlier work
OATP1B1 = conditions: read-out: Ki against OATP1B1; cited from earlier work
[10] = PBPK fitted, rifampin, estimate (%CV)
[11] = PBPK fitted, vehicle, estimate (%CV)
[12] = cynomolgus monkey, intravenous, 0.5 mg/kg, Kp,rest, PBPK fitted, vehicle, estimate (%CV)
[13] = cynomolgus monkey, intravenous, 0.5 mg/kg, Kp,scalar, PBPK fitted, vehicle, estimate (%CV)
[14] = RIF 20 mg/kg orally vs vehicle, monkeys
[15] = rifampin, fixed to the value estimated without rifampin

Molecule: Nc1c(CC(=O)O)cccc1C(=O)c1ccc(Br)cc1 [Bromfenac]
- CL,u,int,passive [1, 10]: 11.2 (95.3%) ml/min/kg
- CLu,int,active [1, 10]: 820 (10.8%) ml/min/kg
- CLu,int,meta [1, 10]: 84.8 (3.8%) ml/min/kg
- CL,u,int,passive [1, 11]: 13.1 (96.2%) ml/min/kg
- CLu,int,active [1, 11]: 2300 (18.7%) ml/min/kg
- CLu,int,meta [1, 11]: 49.7 (16.9%) ml/min/kg
- reduction of active uptake clearance with rifampin inhibition (modeled) [1]: 64%
- Kp [1, 12]: 0.8
- Kp [1, 13]: 0.5
- bromfenac glucuronide excreted in urine, % of the administered dose ([2]; healthy subjects): 82.5%
- liver concentrations, vehicle vs RIF pretreated groups, at 1, 2.5, and 6 h (Liver exposure): overlapped
- decrease of systemic CL in the presence of RIF [3, 14]: 2.1 fold
- increase of plasma exposure (AUClast) with RIF compared to the vehicle group [3, 14]: 2.1 fold
- hepatocyte uptake in the presence of 200 µM of rifamycin SV [4]: partially inhibit

Molecule: CC1=C(CCC(=O)O)c2cc3nc(cc4[nH]c(cc5[nH]c(cc1n2)c(C)c5CCC(=O)O)c(CCC(=O)O)c4C)C(CCC(=O)O)=C3C [CP‐III]
- liver concentration, RIF vs vehicle, at 1 h (Liver exposure): minimally changed
- increase of liver concentration with RIF at 6 h (Liver exposure): 3.7 fold
- increase of plasma exposure (AUClast) with RIF compared to the vehicle group [3, 14]: 8.8 fold

Molecule: COc1ccccc1[C@H](Cn1c(=O)n(C(C)(C)C(=O)O)c(=O)c2c(C)c(-c3ncco3)sc21)OC1CCOCC1 [GS‐0976]
- pharmacodynamic (PD) effect with potent OATP inhibitor [6]: not altered
- plasma concentration with potent OATP inhibitor [6]: increased significantly

Molecule: O=C(O)C[C@H](O)C[C@H](O)/C=C/c1c(C2CC2)nc2ccccc2c1-c1ccc(F)cc1 [pitavastatin]
- increase of systemic exposure when co-administered orally with rifampin [9]: 5.7 fold

Molecule: CO[C@H]1/C=C/O[C@@]2(C)Oc3c(C)c(O)c4c(O)c(cc(O)c4c3C2=O)NC(=O)/C(C)=C\C=C\[C@H](C)[C@H](O)[C@@H](C)[C@@H](O)[C@@H](C)[C@H](OC(C)=O)[C@@H]1C [rifamycin SV]
- Ki (OATP1B3): 3000 nM
- IC50 (OAT2): ~200000 nM
- Ki (OATP1B1): 2000 nM

Now from value to molecule, other results behind:

- CL,u,int,passive [1, 10]: 2.9 (32.4%) ml/min/kg
- CLu,int,active [1, 10]: 95.2 (4.4%) ml/min/kg
- CLu,int,bile [1, 10]: 11.7 (0.1%) ml/min/kg
- CL,u,int,passive [1, 11]: 4.1(11.8%) ml/min/kg
- CLu,int,active [1, 11]: 1154.1 (5.2%) ml/min/kg
- CLu,int,bile [1, 11]: 16.3 (0.022%) ml/min/kg
- Kp,rest [1, 11]: 0.85 (6.1%)
- Kp,scalar [1, 11]: 0.16 (29.4%)
- Kp,rest [1, 15]: 0.85 (fixed)
- Kp,scalar [1, 15]: 0.16 (fixed)
- liver concentration, RIF vs vehicle, at 1 h (Liver exposure): comparable
- liver concentrations, RIF-treated vs vehicle group, at 2.5 h and 6 h (Liver exposure; 2.5 h and 6 h): higher
- average Kp,liver (liver to plasma ratio) (Liver exposure; without RIF (reduced by RIF treatment), Figure S3): ~17
- Urinary excretion, % of total dose [5]: 7.5%
- decrease of systemic CL in the presence of RIF [3, 14]: about 10 fold
- increase of Cmax with RIF [3, 14]: 4.8 fold
- increase of plasma exposure (AUClast) with RIF compared to the vehicle group [3, 14]: 9.1 fold
- volume of distribution (V) ([3]; in the presence of RIF): 0.05 L/kg
- volume of distribution (V) ([3]; vehicle group (without RIF)): 0.11 L/kg
- hepatocyte uptake in the presence of 200 µM of rifamycin SV [4]: greatly inhibited
Molecule: CN(C)c1ccc2c(c1)c(=O)n(-c1ccc(C[C@H](NC(=O)c3c(Cl)cccc3Cl)C(=O)O)cc1)c(=O)n2C [Carotegrast]

- concentration at 3.25 h ([7]; oral): 20.8 µM
- concentration at 6 h ([7]; oral): > 10 µM
- Tmax ([7]; po): 3.5 to 4.5 h
Molecule: CO[C@H]1/C=C/O[C@@]2(C)Oc3c(C)c(O)c4c(O)c(c(/C=N/N5CCN(C)CC5)c(O)c4c3C2=O)NC(=O)/C(C)=C\C=C\[C@H](C)[C@H](O)[C@@H](C)[C@@H](O)[C@@H](C)[C@H](OC(C)=O)[C@@H]1C [RIF, rifampin]

- CL,u,int,passive [1, 10]: 0.5 (41%) ml/min/kg
- CLu,int,active [1, 10]: 81.7 (8.5%) ml/min/kg
- CLu,int,bile [1, 10]: 2.6 (19.7%) ml/min/kg
- CL,u,int,passive [1, 11]: 1.0 (22.5%) ml/min/kg
- CLu,int,active [1, 11]: 331.8 (13.8%) ml/min/kg
- CLu,int,bile [1, 11]: 2.8 (1.7%) ml/min/kg
- reduction of active uptake clearance with rifampin inhibition (modeled) [1]: 75%
- Kp [1, 12]: 2.7
- Kp [1, 13]: 1.1
- CL renal ([1]; cynomolgus monkey, plasma, intravenous, 0.5 mg/kg): 4.4 mL/min/kg
- liver concentrations, vehicle vs RIF pretreated groups, at 1, 2.5, and 6 h (Liver exposure): overlapped
- decrease of systemic CL in the presence of RIF [3, 14]: 2.2 fold
- increase of plasma exposure (AUClast) with RIF compared to the vehicle group [3, 14]: 2.3 fold
- hepatocyte uptake in the presence of 200 µM of rifamycin SV [4]: greatly inhibited
Molecule: CC(C)c1nc(N(C)S(C)(=O)=O)nc(-c2ccc(F)cc2)c1/C=C/[C@@H](O)C[C@@H](O)CC(=O)O [Rosuvastatin]
- Urinary excretion, % of the absorbed dose [8]: ~ 20%
- fraction cleared through renal excretion ([2]; humans): less than 10%

- liver concentration, RIF vs vehicle, at 1 h (Liver exposure): minimally changed
- increase of liver concentration with RIF at 6 h (Liver exposure): 3.2 fold
- increase of plasma exposure (AUClast) with RIF compared to the vehicle group [3, 14]: 5.4 fold
Molecule: coproporphyrin I [CP‐I]
